We go through nine compounds from patent US9951071B2 (priority 2012, dated 2018).

Where a name gives a salt, the structure may show the parent alone. Read-outs that look alike come from different tables or passages of the source. A value given as a limit tells only on which side of the number the result lay.

The conditions of data set [1]: rcm bond, 12-membered ring.
For data set [2] the following is noted: rcm bond, 12-membered ring, Grubbs II/pTsOH, DCM.
Data set [3] addresses purified human Factor XIa (Homo sapiens (Human), UniProt P03951). Briefly: biochemical.
The target of data set [4] is purified human plasma kallikrein (Homo sapiens (Human), UniProt P03952). Briefly: biochemical.
purified human plasma kallikrein, sequence (P03952 whole entry, looked up): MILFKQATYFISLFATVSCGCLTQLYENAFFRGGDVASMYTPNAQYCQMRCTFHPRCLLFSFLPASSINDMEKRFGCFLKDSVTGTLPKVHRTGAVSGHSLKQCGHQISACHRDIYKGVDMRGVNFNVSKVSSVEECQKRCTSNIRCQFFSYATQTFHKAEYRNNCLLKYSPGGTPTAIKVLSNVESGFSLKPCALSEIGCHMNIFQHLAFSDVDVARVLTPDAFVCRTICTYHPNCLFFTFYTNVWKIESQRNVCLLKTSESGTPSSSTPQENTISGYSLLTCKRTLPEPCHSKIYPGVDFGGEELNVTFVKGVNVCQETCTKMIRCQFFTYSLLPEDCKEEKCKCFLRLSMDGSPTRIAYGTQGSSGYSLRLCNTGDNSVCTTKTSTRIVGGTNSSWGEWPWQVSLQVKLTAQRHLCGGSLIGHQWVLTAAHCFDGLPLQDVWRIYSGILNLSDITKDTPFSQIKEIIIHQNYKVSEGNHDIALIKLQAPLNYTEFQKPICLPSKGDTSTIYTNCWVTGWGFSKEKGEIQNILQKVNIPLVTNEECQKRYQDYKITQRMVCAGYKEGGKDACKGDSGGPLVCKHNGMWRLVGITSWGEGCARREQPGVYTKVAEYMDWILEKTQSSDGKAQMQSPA
purified human plasma kallikrein, sequence (P03952 whole entry, looked up): as above
The mark [5] stands for this setting: from C=CC[C@H](NC(=O)OC(C)(C)C)c1cc(-c2ccccc2NC(=O)C(C=C)C(C)C)ccn1, Grubbs II (2 x 0.2 eq), microwave, DCE, 40.0 mM, […].

purified human Factor XIa, sequence (P03951 whole entry, looked up): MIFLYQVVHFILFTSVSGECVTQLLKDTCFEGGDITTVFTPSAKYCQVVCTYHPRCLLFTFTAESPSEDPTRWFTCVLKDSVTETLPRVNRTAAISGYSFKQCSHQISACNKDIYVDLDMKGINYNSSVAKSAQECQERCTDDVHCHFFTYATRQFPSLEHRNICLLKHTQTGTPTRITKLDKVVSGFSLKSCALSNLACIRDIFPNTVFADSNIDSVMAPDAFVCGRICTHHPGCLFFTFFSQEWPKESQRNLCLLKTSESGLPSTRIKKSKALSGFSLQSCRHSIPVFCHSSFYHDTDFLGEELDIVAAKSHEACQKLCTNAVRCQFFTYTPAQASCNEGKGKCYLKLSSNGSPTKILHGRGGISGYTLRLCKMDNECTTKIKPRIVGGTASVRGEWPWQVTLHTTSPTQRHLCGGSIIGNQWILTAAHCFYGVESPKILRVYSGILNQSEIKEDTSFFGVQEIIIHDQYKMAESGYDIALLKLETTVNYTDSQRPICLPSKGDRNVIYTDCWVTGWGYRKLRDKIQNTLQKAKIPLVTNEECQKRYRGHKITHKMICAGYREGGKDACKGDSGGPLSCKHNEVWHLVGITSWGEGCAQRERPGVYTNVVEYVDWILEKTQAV
purified human Factor XIa, sequence (P03951 whole entry, looked up): as above

With `CC(C)[C@@H]1/C=C/C[C@H](NC(=O)OC(C)(C)C)c2cc(ccn2)-c2ccccc2NC1=O`, the ring closure, isolated yield in data set [1] (setting [5]) stood at 10.2%.

In data set [1] (setting [5]), `CC(C)[C@H]1/C=C/C[C@H](NC(=O)OC(C)(C)C)c2cc(ccn2)-c2ccccc2NC1=O` came in with a ring closure, isolated yield of 8.9%.

The compound `COC(=O)Nc1ccc2c(c1)C(=O)NC/C=C/C[C@H](NC(=O)OC(C)(C)C)c1cc-2ccn1` displayed a ring closure, yield after HPLC in data set [2] (from C=CCNC(=O)c1cc(NC(=O)OC)ccc1-c1ccnc([C@H](CC=C)NC(=O)OC(C)(C)C)c1, […], 3.0 h) of 39.4%.

`COC(=O)Nc1ccc2c(c1)NC(=O)[C@H](C)/C=C/C[C@H](NC(=O)OC(C)(C)C)c1nc-2cn1COCC[Si](C)(C)C` yielded a ring closure, isolated yield in data set [1] (from C=CC[C@H](NC(=O)OC(C)(C)C)c1nc(-c2ccc(NC(=O)OC)cc2NC(=O)[C@H](C)C=C)cn1COCC[Si](C)(C)C, Grubbs II (0.4 eq)/pTsOH, DCM, 10.0 mM, 40.0 °C, 21.5 h) of 40.7%.

As for `C[C@@H]1/C=C/C[C@H](NC(=O)OC(C)(C)C)c2cc(ccn2)-c2ccccc2NC1=O`, in data set [1] (from C=CC[C@H](NC(=O)OC(C)(C)C)c1cc(-c2ccccc2NC(=O)[C@H](C)C=C)ccn1, Grubbs II/pTsOH, DCM, 11.8 mM, 40.0 °C, 4.5 h), the ring closure, isolated yield came out at 78%.

One may read the Ki as a dissociation constant, usually derived from enzyme kinetics or from competition with a known ligand. In the case of `C[C@@H]1CCC[C@H](N2CCC(c3c(F)ccc(Cl)c3F)=CC2=O)c2cc(ccn2)-c2ccncc2NC1=O` [Example 72, (10R,14S)-14-[4-(3-Chloro-2,6-difluorophenyl)-6-oxo-1,2,3,6-tetrahydropyridin-1-yl]-10-methyl-5,8,16-triazatricyclo[13.3.1.0^2,7]nonadeca-1(19),2(7),3,5,15,17-hexaen-9-one, TFA Salt], the Ki in data set [3] came out at 8.67 nM; in data set [4] it was 19 nM.

`COC(=O)c1ccc2c(c1)-c1cccc(c1)[C@@H](N1CC=C(c3c(F)ccc(Cl)c3F)CC1=O)CCC[C@@H](C)C(=O)N2` [Example 174, Methyl (10R,14S)-14-[4-(3-chloro-2,6-difluorophenyl)-2-oxo-1,2,3,6-tetrahydropyridin-1-yl]-10-methyl-9-oxo-8-azatricyclo[13.3.1.0^2,7]nonadeca-1(19),2,4,6,15,17-hexaene-4-carboxylate] showed a Ki in data set [3] of over 625 nM.

In turn, `COC(=O)c1ccc2c(c1)-c1cccc(c1)[C@@H](N1CC=C(c3c(Br)ccc(Cl)c3F)CC1=O)CCC[C@@H](C)C(=O)N2` [Example 176, Methyl (10R,14S)-14-[4-(6-bromo-3-chloro-2-fluorophenyl)-2-oxo-1,2,3,6-tetrahydropyridin-1-yl]-10-methyl-9-oxo-8-azatricyclo[13.3.1.0^2,7]nonadeca-1(19),2,4,6,15,17-hexaene-4-carboxylate] gave a Ki in data set [3] of over 625 nM.

Turning to “tert-butyl N-[(10R,11Z,14S)-17-methoxy-5-[(methoxycarbonyl)amino]-10-methyl-9-oxo-8,16-diazatricyclo[13.3.1.0^2,7]nonadeca-1(19),2,4,6,11,15,17-heptaen-14-yl]carbamate and tert-butyl N-[(10R,11E,14S)-17-methoxy-5-[(methoxycarbonyl)amino]-10-methyl-9-oxo-8,16-diazatricyclo[13.3.1.0^2,7]nonadeca-1(19),2,4,6,11,15,17-heptaen-14-yl]carbamate as a Mixture”, the ring closure, yield after HPLC in data set [2] (8.5 mM) is 29%.
